According to patent publication US20150119267A1, “INHIBITION OF COLONY STIMULATING FACTOR-1 RECEPTOR SIGNALING FOR THE TREATMENT OF BRAIN CANCER” (SLOAN-KETTERING INSTITUTE FOR CANCER RESEARCH, priority 2012, published 2015):
Entries after “also recorded” stand apart in the source; their conditions may differ.

Columns and labels:
[1] = system: CSF1-dependent cell proliferation; assay: CSF1-dependent cell proliferation; type: cell-based; details: read-out: inhibits CSF1-dependent cell proliferation
>200 kinases = assay: biochemical kinase panel; details: read-out: biochemical IC50 values for >200 kinases tested; except cKIT and PDGFRβ; data not shown
[2] = system: primary bone marrow-derived macrophages (BMDMs); assay: MTT assay, primary BMDMs; type: cell-based, mouse; details: wild-type C57BL/6 BMDMs in culture, 67 nM
Description: (§1) Cell growth rate was determined using the MTT cell proliferation kit (Roche). […] Media was changed every 48 hours. BMDM and CRL-2467 cells were supplemented with 10 ng/ml and 30 ng/ml recombinant mouse CSF-1 respectively unless otherwise indicated. Ten μl of MTT labeling reagent was added to each well and then incubated for 4 hours at 37° C., followed by the addition of 100 μl MTT solubilization reagent overnight. The mixture was gently resuspended and absorbance was measured at 595 nm and 750 nm on a SPECTRAMAX 340 pc plate reader (Molecular Devices).

Ink4a/Arf−/− BMDMs = assay: MTT assay, Nestin-Tv-a;Ink4a/Arf−/− BMDMs; type: cell-based, mouse
Description: as §1

CD11b+Gr-1− TAMs = assay: Gene expression profiling of TAMs (microarray); type: in vivo, mouse
Mrc1/CD206 = Mrc1/CD206 expression in BMDMs (flow cytometry, qRT-PCR); type: cell-based, mouse; details: in vitro, GCM
Description: Media that had been conditioned by glioma tumor cell lines grown in serum free media for 24 hours was passed through 0.22 μm filters to remove cellular debris, and is referred to herein as glioma cell-conditioned media (GCM). GCM was used to stimulate differentiated C57BL/6 WT or β-actin-GFP^+ BMDMs. Control macrophages received fresh media containing 10% FBS and 10 ng/ml recombinant mouse CSF-1.
For mouse primary glioma cultures (containing a mixed population of tumor cells, TAMs, astrocytes etc.; see FIG. 15), 1×10^6 cells were cultivated in DMEM+10% FBS in the presence of the CSF-1R inhibitor or DMSO as vehicle (n=6 independently isolated cultures). For BMDMs, 1×10^6 cells were cultivated in DMEM supplemented with recombinant mouse CSF-1 or GCM in the presence of the CSF-1R inhibitor or DMSO as vehicle. After 48 hours, cells were scraped and washed with FACS buffer. Cells were counted and incubated with 1 μl of Fc Block (BD Pharmingen) per 10^6 cells for at least 15 minutes at 4° C. Cells were then stained with CD45 and CD11b antibodies (Table 7) for 10 minutes at 4° C. and washed with FACS buffer. Cells were fixed and permeabilized using the BD Cytofix/Cytoperm™ kit (BD Biosciences) according to the manufacturer's instructions. Subsequently cells were stained with anti-CD206 antibody (Table 7). […]

Mrc1 = Mrc1 expression in primary glioma cultures (flow cytometry); type: cell-based, mouse; details: CD45+CD11b+ cells
Description: Macrodissected tumors were digested to a single cell suspension by incubation for 8-12 minutes at 37° C. as described above. The cell suspension was washed with Neural Stem Cell (NSC) Basal Media (Stem Cell Technologies), and centrifuged at low speed (750 rpm Sorvall Legend RT), to remove debris. To derive mouse primary glioma cultures, the cell pellet was resuspended in DMEM containing 10% FBS (Gibco). These primary cultures were used at early passage (P2-P3), and contain a mixture of different cell types found in gliomas including tumor cells, macrophages, and astrocytes as determined by immunofluorescence staining. Primary glioma cultures were grown for 24 hours on poly-L-lysine coated coverslips (BD Biocoat). Cells were then fixed with 4% PFA in 0.1M phosphate buffer overnight at 4° C., permeabilized with 0.1% Triton-X for 5 minutes and blocked with 0.5% PNB for at least one hour. […]
For mouse primary glioma cultures (containing a mixed population of tumor cells, TAMs, astrocytes etc.; see FIG. 15), 1×10^6 cells were cultivated in DMEM+10% FBS in the presence of the CSF-1R inhibitor or DMSO as vehicle (n=6 independently isolated cultures). […] Cells were counted and incubated with 1 μl of Fc Block (BD Pharmingen) per 10^6 cells for at least 15 minutes at 4° C. […]

normal microglia = assay: Microglia in normal non-tumor bearing mice, flow cytometry; type: in vivo, mouse; details: 200 mg/kg once per day for 7 days
Description: Data are presented as mean±SEM. […] Circles represent individual mice (n=5-6 per group). P values were obtained using unpaired two-tailed Student's t-test; *P<0.05.
As many immune cell epitopes are papain-sensitive, for investigation of immune cell infiltration by flow cytometric analysis, tumors were digested to a single cell suspension by incubation for 10 minutes at 37° C. with 5 mL of 1.5 mg/ml collagenase III (Worthington) and 0.06 mg/mL DNase I in 1× Hanks Balanced Salt Solution (HBSS) with calcium and magnesium. The cell suspension was then washed with PBS and passed through a 40 μm mesh to remove undigested tissue. To remove myelin debris, the cell pellet was resuspended at room temperature in 15 ml of 25% Percoll prepared from stock isotonic Percoll (90% Percoll [Sigma], 10% 10× HBSS), and then spun for 15 minutes at 1500 rpm (Sorvall Legend RT) with accelerator and brake set to 1. The cell pellet was then washed with lx HBSS prior to being resuspended in FACS buffer.
After counting, cells were incubated with 1 μl of Fc Block for every million cells for at least 15 minutes at 4° C. Cells were then stained with the appropriate antibodies for 10 minutes at 4° C., washed with FACS buffer, and resuspended in FACS buffer containing DAPI (5 mg/ml diluted 1:5000) for live/dead cell exclusion.

For `CNC(=O)c1cc(Oc2ccc3nc(N[C@@H]4CCCC[C@H]4O)sc3c2)ccn1` [BLZ945], the IC50 [1] was 67 nM, the IC50 (>200 kinases) was over 10000 nM and the “macrophage (BMDM) survival / viability” value [2] was “significantly decreases the viability; also recorded: blocks macrophage survival”. The BMDM survival (Ink4a/Arf−/− BMDMs) was “blocked the survival”, the “targets of Egr2 (GSEA)” value (CD11b+Gr-1− TAMs; 7 days treatment) was “downregulated” and the “upregulated differentially expressed genes” value (CD11b+Gr-1− TAMs; BLZ945 versus vehicle, 7 days treatment) was 52 genes. For the same compound, the “classically activated/M1 macrophage markers” value (CD11b+Gr-1− TAMs; with the exception of IL-1 beta) was “not differentially expressed”, the “expression of Mrc1/CD206 in BMDMs” value (Mrc1/CD206) was “downregulates” and the “Mrc1 in primary glioma cultures containing TAMs” value (Mrc1) was “decreased”. For the same compound, the “normal microglia in non-tumor bearing mice” value (normal microglia) was “depletes normal microglia”.
